Where only a bound is given, the exact number is not on record here.

Experiment [1] can be described thus: microbe, parasite or virus in culture. The following applies: Mycobacterium tuberculosis, 96 h, read-out: pIC50 (converted).
The nature of experiment [2]: microbe, parasite or virus in culture. Conditions: Mycobacterium tuberculosis, 72 h, read-out: pIC50 (converted).

With `CCOc1ccc(C(=O)CCN(C)C)cc1`, the figures for the IC50 in experiment [1] and in experiment [2] were 191 µM and 160 µM, respectively.
On to `O=C(NCCSC(F)(F)F)Nc1cccc2[nH]nnc12`, for which the values for the IC50 in experiment [1] and in experiment [2] were 265 µM and 286 µM, respectively.
In the case of `CCOCCN(C)C(c1cccnc1)c1ccc(F)cc1F` (centres undefined), the IC50 in experiment [1] and in experiment [2] was > 50.1 µM each time.
`C=C(Br)Cn1c(CO)nc2ccccc21`: the IC50 in experiment [1] and in experiment [2] was > 501 µM each time.
`CN(Cc1cccnc1)C(=O)c1cc(Cl)c[nH]1`: the IC50 in experiment [1] was 333 µM; in experiment [2] it was 281 µM.
Consider `COc1ccc(NC(C(N)=O)c2ccc(Br)cc2)cn1` (centres undefined), for which the IC50 was 198 µM in experiment [1] and 148 µM in experiment [2].
The matching figures for `O=C(CS(=O)(=O)Cc1cccc(Cl)c1)NCC1CC1`: 263 µM and 83.2 µM.
As for `CN1C(=O)c2ccc(C(=O)NC3CC3)cc2C1=O`, the IC50 in experiment [1] and in experiment [2] was > 501 µM in each case.
For the molecule `c1csc(CN2CC(c3nc(-c4cnccn4)no3)C2)c1`, the IC50 in experiment [1] and in experiment [2] was > 50.1 µM each time.
`O=C(c1cccc2cn[nH]c12)N1CCCC1CO` (centres undefined): the IC50 in experiment [1] and in experiment [2] was > 501 µM each time.
Regarding `COc1ccccc1CC(=O)Nc1ncc(C(N)=O)s1`, the IC50 in experiment [1] and in experiment [2] was > 501 µM each time.
On to `Cc1nc(C2CN(Cc3ccc(F)cc3Br)CCO2)no1` (centres undefined), for which the IC50 in experiment [1] was 11.2 µM; in experiment [2], 33 µM.
Take `COC(=O)C(NC(=O)c1ccc(NC2CC2)nc1)c1ccccc1` (centres undefined): the IC50 in experiment [1] was 21.9 µM; in experiment [2] it was > 50.1 µM.
The matching figures for `OCC1CCN(CCc2ccccc2)C1` (centres undefined): 243 µM and 393 µM.
For `CCc1cn[nH]c1C1CCN(c2cc(C)c3cccc(OC)c3n2)CC1` the same measures were > 50.1 µM and 22.2 µM.
For the molecule `Cc1ccccc1C(=O)N1CC[C@@H]2CN(c3ncccn3)CCO[C@@H]2C1`, the IC50 in experiment [1] and in experiment [2] was > 50.1 µM throughout.
`CCOc1ccc(Cl)cc1CNCCNCC(C)O` (centres undefined): the results for the IC50 in experiment [1] and in experiment [2] were 30.7 µM and 254 µM, respectively.
On to `OCCOCCNCc1ccc(-c2ccc(F)cc2)o1`, for which the IC50 is 127 µM in experiment [1] and 288 µM in experiment [2].
For the molecule `CN(CCc1ccccn1)Cc1nccn1Cc1ccccc1`, the IC50 in experiment [1] is > 50.1 µM; in experiment [2] it was 43.5 µM.
Consider `Cc1csc(CN(C)CCOc2ccccc2)n1`, for which the IC50 in experiment [1] is 20.5 µM; in experiment [2] it was 23 µM.
In the case of `COc1cc(C)c(S(=O)(=O)N2C[C@@H](O)[C@@H](O)C2)cc1C`, the IC50 in experiment [1] was > 501 µM; in experiment [2] it was 229 µM.
For the molecule `Cc1ccc(N2N=C(C(N)=O)S(=O)(=O)c3cccnc32)cc1`, the IC50 was 36 µM in experiment [1] and 14.5 µM in experiment [2].
As to `CCOCCC(=O)N1CCN(c2ccc(F)cc2)CC1`, the IC50 in experiment [1] was 129 µM; in experiment [2] it was 11.3 µM.
`Cc1cc(NC(C)c2ccco2)nc(N)n1` (centres undefined): the IC50 in experiment [1] and in experiment [2] was > 501 µM throughout.
Take `COc1cccc(-c2cnn(CCC(N)=O)c2)c1F`: the IC50 in experiment [1] is > 501 µM; in experiment [2] it was 355 µM.
With `NCC(=O)Nc1ccc(Cl)c(F)c1`, the IC50 in experiment [1] was 120 µM; in experiment [2], 212 µM.
As to `CCCc1nc(CN2Cc3ncccc3C2=O)cs1`, the IC50 in experiment [1] is 119 µM; in experiment [2], 120 µM.
The matching figures for `CC(C)C(NS(=O)(=O)N1CCOCC1)c1ccccc1` (centres undefined): > 501 µM and > 501 µM.
As to `N#CC1(NC(=O)COc2cc(Cl)cc(Cl)c2)CCSC1` (centres undefined), the IC50 in experiment [1] and in experiment [2] was > 50.1 µM throughout.
For the molecule `CN(C(=O)CN1CCCC1Cc1ccccc1)c1ccccc1` (centres undefined), the IC50 was > 50.1 µM in experiment [1] and 33 µM in experiment [2].
Turning to `COc1ccc(CSCC(N)=O)cc1Br`, the results for the IC50 in experiment [1] and in experiment [2] were 262 µM and 241 µM, respectively.
Consider `CC(C)c1cccc(S(=O)(=O)NCCCN)c1`, for which the IC50 in experiment [1] is > 501 µM; in experiment [2], 195 µM.
For `CCN1CC2(CC1=O)CN(Cc1cnn(C)c1)CCN(C(=O)C(C)C)C2` (centres undefined), the IC50 in experiment [1] and in experiment [2] was > 50.1 µM in each case.
Regarding `CC(C)Cc1cc(C(=O)N(C)Cc2cnccn2)on1`, the IC50 in experiment [1] and in experiment [2] was > 501 µM throughout.
For the molecule `CC(C)NC(=O)NCC1(N2CCOCC2)CCSC1` (centres undefined), the IC50 in experiment [1] and in experiment [2] was > 501 µM throughout.
As to `COc1cc(OC)cc(C2(F)CCNCC2)c1`, the results for the IC50 in experiment [1] and in experiment [2] were 287 µM and 226 µM, respectively.
In the case of `CCc1ccc(CN(C)C(=O)c2cccn2C)nc1`, the results for the IC50 in experiment [1] and in experiment [2] were 257 µM and 175 µM, respectively.
With `CC(C)N(C)S(=O)(=O)N(C)Cc1ccc(Br)o1`, the figures for the IC50 in experiment [1] and in experiment [2] were 394 µM and 204 µM, respectively.
For the molecule `OCCCN1CCCN(Cc2ccc(F)cc2)CC1`, the IC50 in experiment [1] was > 501 µM; in experiment [2], 186 µM.
For `COc1ccc([S+]([O-])Cc2noc(C)n2)cc1` (centres undefined), the figures for the IC50 in experiment [1] and in experiment [2] were 143 µM and 206 µM, respectively.
As to `Cc1noc(C(C)Nc2ccc3c(c2)CCC3)n1` (centres undefined), the results for the IC50 in experiment [1] and in experiment [2] were 3.32 µM and 5.68 µM, respectively.
Consider `O=C(CSc1cnn[nH]1)OCc1ccccc1`, for which the IC50 in experiment [1] was > 501 µM; in experiment [2], 67.9 µM.
On to `CC(C)c1cccc(NC(=O)CN2CCC(O)CC2)c1`, for which the IC50 in experiment [1] was 359 µM; in experiment [2], 116 µM.
Take `CCOc1cccc(CSc2nc(=O)ccn2CC)n1`: the IC50 in experiment [1] is > 501 µM; in experiment [2], 460 µM.
`CCC(C)(C)NC(=O)c1nnn(-c2ccccc2)c1C`: the figures for the IC50 in experiment [1] and in experiment [2] were 282 µM and 311 µM, respectively.
Consider `CCC1c2ccsc2CCN1CC(=O)NC` (centres undefined), for which the IC50 in experiment [1] and in experiment [2] was > 501 µM in each case.
On to `Cc1cccc(NCC(=O)NC2CCCCC2)n1`, for which the IC50 in experiment [1] was 148 µM; in experiment [2], 152 µM.
With `O=C(Nc1nncs1)c1ccccn1`, the IC50 in experiment [1] was 139 µM; in experiment [2], 36.5 µM.
Regarding `CCCn1nccc1C(=O)Nc1nc(C)c(C)s1`, the IC50 was 47.4 µM in experiment [1] and > 50.1 µM in experiment [2].
Turning to `CC(C)c1csc(C(=O)N2CCOc3ncccc32)n1`, the IC50 in experiment [1] was 231 µM; in experiment [2] it was 139 µM.
For the molecule `COCC(C)Oc1cc(C)ccc1CN` (centres undefined), the IC50 was 228 µM in experiment [1] and 149 µM in experiment [2].
For the molecule `C=Cc1ccc(C(=O)N2CCCC(Nc3ccc(F)c(F)c3)C2)cc1` (centres undefined), the IC50 was 40.8 µM in experiment [1] and > 50.1 µM in experiment [2].
For `FC(F)(F)c1ccc(-c2cnc(C3CCCN3)cn2)cc1` (centres undefined) the same measures were 2.02 µM and 13.9 µM.
For `Cc1cccc(Cl)c1OCCN`, the IC50 is > 501 µM in experiment [1] and 319 µM in experiment [2].
The matching figures for `COC(=O)[C@@H]1C[C@@H](O)CN1Cc1ncc(C(C)(C)C)o1`: > 501 µM and > 501 µM.
For `NC(=O)c1ccsc1NC(=O)CCN1CCCCC1` the same measures were > 501 µM and 495 µM.
For `NC1CCN(c2ncc(C(F)(F)F)cc2Cl)C1` (centres undefined) the same measures were 83.4 µM and 123 µM.
For `COc1ccc(CN2CCOC[C@H](OCCC(C)C)C2)cc1`, the IC50 in experiment [1] and in experiment [2] was > 50.1 µM throughout.
In the case of `CC(C)Nc1ncccc1C(=O)Nc1nncs1`, the IC50 in experiment [1] and in experiment [2] was > 501 µM throughout.
As to `CC(C)Sc1nc(-c2ccccn2)no1`, the IC50 in experiment [1] is 312 µM; in experiment [2], 320 µM.
Take `CCc1ccc(CN(CCCn2ccnc2)Cc2ccc(C)s2)o1`: the IC50 in experiment [1] was 36.8 µM; in experiment [2], 37.5 µM.
For `CCN1CCN(c2ccccc2O)CC1` the same measures were 189 µM and 210 µM.
For `CN(C(=O)CN)c1ccc(-c2ccccc2)cc1` the same measures were 260 µM and 305 µM.
On to `CC(=O)c1ccc(C(=O)Nc2ccnc(N(C)C)n2)cc1`, for which the IC50 in experiment [1] and in experiment [2] was > 50.1 µM throughout.
In the case of `COCCCOC1CN(C(=O)c2ccc(Cl)cn2)C1`, the IC50 in experiment [1] was 84.6 µM; in experiment [2] it was 2.73 µM.
On to `COc1cccc(-c2noc(-c3ccc(NCC(C)O)nc3)n2)c1OC` (centres undefined), for which the results for the IC50 in experiment [1] and in experiment [2] were 19.4 µM and > 50.1 µM, respectively.
The matching figures for `Cc1cc(N(C)Cc2ccsc2)n2nc(C)c(C)c2n1`: 12.6 µM and 12.6 µM.
On to `CCc1ccc(S(=O)(=O)N2CC[C@@H](N)C2)cc1CC`, for which the IC50 in experiment [1] and in experiment [2] was > 501 µM throughout.
Turning to `COc1ccc(-n2cc(CNC(=O)c3ccccn3)nn2)cc1`, the IC50 in experiment [1] and in experiment [2] was > 50.1 µM each time.
For `CCc1noc(Cn2nc(C(F)(F)F)ccc2=O)n1`, the IC50 in experiment [1] was 365 µM; in experiment [2] it was 47.8 µM.
In the case of `N[C@H]1CN(S(=O)(=O)c2cccc(Cl)c2)C[C@@H]1C1CC1`, the values for the IC50 in experiment [1] and in experiment [2] were > 501 µM and 363 µM, respectively.
The matching figures for `Cc1ccc(NCc2ncc(C(C)(C)C)o2)c(Cl)c1`: 9.14 µM and 8.32 µM.
As for `NCCc1ccc(N2CCOCC2)c(F)c1`, the IC50 was 263 µM in experiment [1] and 154 µM in experiment [2].
As to `CCOC(=O)c1cnc(N2CCNCC2)s1`, the IC50 in experiment [1] is 240 µM; in experiment [2] it was 256 µM.
For the molecule `O=C(O)[C@@H]1CN(Cc2ccc(-c3cc[nH]n3)s2)C[C@H]1C1CC1`, the IC50 in experiment [1] and in experiment [2] was > 50.1 µM throughout.
In the case of `Cc1cnn(CCNCCCOc2ccc3c(c2)OCO3)c1`, the IC50 is 13.6 µM in experiment [1] and 13.9 µM in experiment [2].
`CCC(C)Oc1ccc(CNCCNS(C)(=O)=O)cc1Cl` (centres undefined): the IC50 in experiment [1] and in experiment [2] was > 50.1 µM each time.
For the molecule `CC(C)c1cc(N(C)Cc2noc(C3CCCC3)n2)n2nccc2n1`, the IC50 is 15.5 µM in experiment [1] and 9.63 µM in experiment [2].
`COC(=O)c1cnc(/C=C/c2ccc(C(=O)O)cc2)s1`: the IC50 in experiment [1] is 27.3 µM; in experiment [2], 26.6 µM.
On to `CCC(NC(=O)NCCCOC)C(C)C` (centres undefined), for which the IC50 in experiment [1] and in experiment [2] was > 501 µM in each case.
For `COc1ccc2nnc(C(=O)NCC3CCCC3)nc2c1`, the IC50 is > 50.1 µM in experiment [1] and 12.3 µM in experiment [2].
For the molecule `Cc1cc(NCCC(=O)NC(C)C)nc(-c2ccncc2)n1`, the IC50 in experiment [1] and in experiment [2] was > 50.1 µM in each case.

The values are drawn from ChEMBL document CHEMBL3988442, “University of Dundee, Small-Polar-MMV Screening Library” (2021).
